EC50 data for 32 molecules are collected here from ChEMBL document CHEMBL5728179, “Triazolopyridines” (2020).

A short description of the experiment: Cellular gamma-Secretase Assay: Human neuroglioma H4 cells overexpressing human APP695 with the Swedish double mutation (K595N/M596L) were plated at 30,000 cells/well/100 μl in 96-well plates in IMDM media containing 10% FCS, […] Hygromycin B and incubated at 37° C., 5% CO2.3-4 hr post plating, compounds are a diluted in media and 50 μl is added as 1.5-fold concentrate to achieve the final concentration. Compound incubation is performed for 24 hr. Final doses typically range from 4 μM down to 0.0013 μM in half-log steps resulting in a eight point dose response curve.Appropriate controls using vehicle only and reference compound were applied to this assay. The final concentration of Me2SO was 0.4%.After incubation at 37° C., 5% CO2, the supernatant was subjected to quantification of secreted Aβ42 by the means of an AlphaLisa assay kit (Human Amyloid beta 1-42 Kit: Cat #AL203C, Perkin Elmer). 20 μl of the cell culture supernatant was transferred to an assay plate. Then 10 μl of a mixture of the AlphaLisa coupled capture antibody and the biotinylated detection antibody was added and incubated for 3 hours at room temperature while softly shaking the assay plate. After a further addition of 20 μl of the Donor beads the assay plate was incubated for 30 min at room temperature and constant shaking without exposure to direct light. The assay plate was then read on a Paradigm AlphaLisa Reader using the build-in program with excitation at 680 nm and emission at 570 nm.The measured signals were then used to calculate IC50 values for inhibition of Aβ42 secretion by nonlinear regression fit analysis using XLfit 5.3 software (IDBS).
The term EC50 denotes the midpoint of the concentration-response curve. Consider `C[C@H](Oc1ccc(C(C)(C)O)c2nc(N[C@@H]3[C@@H]4CC[C@H]3CN(c3cnnc(Cl)c3)C4)nn12)C(F)(F)F`, for which the concentration for a half-maximal effect (EC50) is 40 nM. As for `Cc1ncn(-c2ccc(Nc3nc4c(C(C)C)ccc(OCC(F)(F)F)n4n3)cc2OC(F)F)n1`, the figure is 34.2 nM. As for `COc1cc(N2C[C@H]3CC[C@@H](C2)C3Nc2nc3c(C(C)C)ccc(O[C@@H](C)C(F)(F)F)n3n2)ccn1` (some centres not stated), the figure is 19.6 nM; as for `Cc1cc(N2C[C@H]3CC[C@@H](C2)[C@@H]3Nc2nc3cccc(OCC(F)(F)F)n3n2)sn1`, 7 nM; as for `CC(C)(O)c1ccc(OCC(F)(F)F)n2nc(N[C@@H]3[C@@H]4CC[C@H]3CN(c3ccnc(C(F)(F)F)c3)C4)nc12`, 44.8 nM. `COc1cc(Nc2nc3c(C(F)(F)F)ccc(O[C@@H](C)C(F)(F)F)n3n2)ccc1-n1cnc(C)n1`: the EC50 was 40.5 nM. Next, `Cc1ccc(OCC(F)(F)F)n2nc(N[C@@H]3[C@@H]4CC[C@H]3CN(c3ccnc(Cl)c3)C4)nc12`: 9.2 nM; `COc1cc(N2C[C@H]3CC[C@@H](C2)[C@@H]3Nc2nc3c(C)ccc(OCC(F)(F)F)n3n2)ccn1`: 15.6 nM; `Cc1ccc(OCC(F)(F)F)n2nc(N[C@@H]3[C@@H]4CC[C@H]3CN(c3ccnc(C(F)(F)F)c3)C4)nc12`: 20.6 nM. Next, `Cc1cn(-c2ccc(Nc3nc4c(C(C)(C)O)ccc(O[C@@H](C)C(F)(F)F)n4n3)cc2C#N)cn1`: 37.3 nM; `Cc1ncn(-c2ccc(Nc3nc4c(C(C)(C)O)ccc(OCC(F)(F)F)n4n3)cc2OC(F)F)n1`: 45.5 nM; `COc1cc(Nc2nc3c(C(C)C)ccc(OCC(F)(F)F)n3n2)ccc1-c1ccnc(C)c1`: 21.2 nM. As for `Cc1ccc(OCC(F)(F)F)n2nc(N[C@@H]3[C@@H]4CC[C@H]3CN(c3cnnc(Cl)c3)C4)nc12`, the EC50 is 46.5 nM. As for `Cc1noc(N2C[C@H]3CC[C@@H](C2)[C@@H]3Nc2nc3c(C(C)C)ccc(OCC(F)(F)F)n3n2)n1`, the figure is 37.4 nM; as for `COc1cc(Nc2nc3c(C(C)C)ccc(OCC(F)(F)F)n3n2)ccc1-n1cnc(C)n1`, 26.6 nM; as for `COc1cc(N2C[C@H]3CC[C@@H](C2)[C@@H]3Nc2nc3c(C(C)C)ccc(OCC(F)(F)F)n3n2)ccn1`, 25.4 nM. As for `Cc1cc(N2C[C@H]3CC[C@@H](C2)[C@@H]3Nc2nc3c(C)ccc(OCC(F)(F)F)n3n2)ncn1`, the figure is 29.9 nM. Next, `CC(C)c1ccc(OCC(F)(F)F)n2nc(N[C@@H]3[C@@H]4CC[C@H]3CN(c3ccnc(Cl)c3)C4)nc12`: 11.7 nM. `Cc1nnc(N2C[C@H]3CC[C@@H](C2)[C@@H]3Nc2nc3c(C(C)C)ccc(O[C@@H](C)C(F)(F)F)n3n2)o1`: the EC50 was 43.2 nM. Next, `COc1cc(N2C[C@H]3CC[C@@H](C2)[C@@H]3Nc2nc3c(C(C)C)ccc(OCC(F)(F)F)n3n2)cnn1`: 21.2 nM; `Cc1cn(-c2ccc(Nc3nc4c(C(C)C)ccc(OCC(F)(F)F)n4n3)cc2C#N)cn1`: 49.4 nM. Next, `COc1cc(Nc2nc3c(C(C)(C)O)ccc(O[C@@H](C)C(F)(F)F)n3n2)ccc1-n1cnc(Cl)n1`: 42.2 nM. As for `CC(C)c1ccc(O[C@@H](C)C(F)(F)F)n2nc(N[C@@H]3[C@@H]4CC[C@H]3CN(c3cnnc(Cl)c3)C4)nc12`, the figure is 13.2 nM.

Take `FC(F)(F)COc1cccc2nc(N[C@@H]3[C@@H]4CC[C@H]3CN(c3ccnc(C(F)(F)F)c3)C4)nn12`: the EC50 is 43.6 nM. Next, `CC(C)c1ccc(OCC(F)(F)F)n2nc(N[C@@H]3[C@@H]4CC[C@H]3CN(c3ccnc(C(F)(F)F)c3)C4)nc12`: 33.2 nM; `COc1cc(Nc2nc3c(C(C)(C)O)ccc(O[C@@H](C)C(F)(F)F)n3n2)ccc1-n1cnc(C)n1`: 39 nM; `Cc1cc(N2C[C@H]3CC[C@@H](C2)[C@@H]3Nc2nc3c(C(C)C)ccc(OCC(F)(F)F)n3n2)ncn1`: 38.5 nM.

On to `CC(C)c1ccc(OCC(F)(F)F)n2nc(N[C@@H]3[C@@H]4CC[C@H]3CN(c3cnnc(Cl)c3)C4)nc12`, for which the concentration for a half-maximal effect (EC50) is 23.2 nM. Next, `COc1cc(N2C[C@H]3CC[C@@H](C2)[C@@H]3Nc2nc3c(C(C)C)ccc(O[C@@H](C)C(F)(F)F)n3n2)cnn1`: 14.2 nM; `Cc1cc(N2C[C@H]3CC[C@@H](C2)[C@@H]3Nc2nc3c(C(C)(C)O)ccc(O[C@@H](C)C(F)(F)F)n3n2)ncn1`: 34.6 nM; `Cc1cc(N2C[C@H]3CC[C@@H](C2)[C@@H]3Nc2nc3c(C(C)(C)O)ccc(OCC(F)(F)F)n3n2)ncn1`: 43.8 nM. As for `Cc1noc(N2C[C@H]3CC[C@@H](C2)[C@@H]3Nc2nc3c(C(C)C)ccc(O[C@@H](C)C(F)(F)F)n3n2)n1`, the figure is 49 nM.
